Measured values from patent US9981005B2, “Methods for increasing DISC1 in a subject with schizophrenia or bipolar disorder by an antagonist inhibiting DISC1 binding to FBXW7” (The University Court of the University of Glasgow, priority 2013, dated 2018).
Entries after “also recorded” stand apart in the source; their conditions may differ. Where a SMILES comes first, the peptide text is derived from it. Where no end group is shown, it is not given here. [ ]: non-standard residue; d: D form. The star is where a group is joined. pT = C[C@@H](OP(=O)(O)O)[C@H](N)C(=O)O; NMeE = CN[C@@H](CCC(=O)O)C(=O)O; pS = N[C@@H](COP(=O)(O)O)C(=O)O; NMeD = CN[C@@H](CC(=O)O)C(=O)O; Cbz = O=C(OCc1ccccc1)*

What was measured:
[1] = system: DISC1 levels in HEK293 cells; assay: MG132 treatment of HEK293 cells, Western blot for DISC1; type: cell-based, human; conditions: MG132 at various concentrations for 3 hours, FIG. 1
Method: The proteasome inhibitor MG132 (N-carbobenzoxyl-Leu-Leu-Leucinal) (Sigma) was dissolved in DMSO to make a stock of 10 mM and stored at −20° C. HEK293 cells were treated with MG132 at various concentrations for 3 hours. The cells were then lysed in 3T3 lysis buffer (20 mM Hepes (pH 7.4), 50 mM NaCl, 50 mM NaF, 10% (v/v) glycerol, 1% (w/v) Triton X-100, 10 mM EGTA, 30 mM sodium pyrophosphate supplemented with protease and phosphatase inhibitor cocktail (Roche)). Proteins were quantified and normalised for protein concentration followed by Western blot analysis for DISC1 and GAPDH.
(§1) Lysates were boiled in Laemmli buffer for 2 minutes prior to SDS-PAGE. Lysates were loaded on to a precast 4-12% bis-tris gel (˜10 μg/well). Gels were resolved at 150V (constant) for 90 mins. Proteins were transferred to nitrocellulose membrane at 30V for 1 hour. Membranes were blocked in 5% Milk in 1×TBS-tween20 for 1 hour at room temperature. Primary antibodies were diluted in 1% milk in 1×TBS-tween20 and incubated overnight at 4° C. […] Protein bands were visulised using the Licor Odyssey scanner and analysed using Odyssey software (version 1.2). DISC-1 protein levels were analysed by densitometry and normalised against those of the loading control (GAPDH).

Skp1-FBXW7 = target: T1, Skp1-FBXW7 (Homo sapiens, UniProt Q969H0); assay: Isothermal titration calorimetry (ITC); type: binding; conditions: ITC at 25° C.
T1 construct: human FBXW7 (residues 263-707); His6 (N, cleaved yes); made in house; host or cells: Escherichia coli
T1 sequence (Q969H0 263-707): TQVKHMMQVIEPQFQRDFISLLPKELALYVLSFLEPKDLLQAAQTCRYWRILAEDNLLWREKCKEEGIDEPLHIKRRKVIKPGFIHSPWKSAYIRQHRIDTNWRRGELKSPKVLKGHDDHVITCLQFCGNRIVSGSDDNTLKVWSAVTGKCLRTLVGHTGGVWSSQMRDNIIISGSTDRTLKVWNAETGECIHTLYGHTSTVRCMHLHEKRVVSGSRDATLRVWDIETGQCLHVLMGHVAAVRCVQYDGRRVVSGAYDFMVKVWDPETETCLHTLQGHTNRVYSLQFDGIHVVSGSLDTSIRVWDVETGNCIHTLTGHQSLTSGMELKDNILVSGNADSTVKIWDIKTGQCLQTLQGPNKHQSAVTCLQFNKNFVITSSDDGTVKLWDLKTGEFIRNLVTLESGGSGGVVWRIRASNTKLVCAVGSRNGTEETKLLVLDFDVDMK
Method: Affinity of DISC1 analogue peptides (or other binding inhibitors) for FBXW7 may be determined using ITC.
Protein samples are typically dialysed against a solution containing 20 mM HEPES-Na (pH 7.4), 200 mM NaCl, and 2 mM β-mercaptoethanol before combining. Typically, the concentrations of Skp1-FBXW7 and DISC1 peptides used in the assay are 50 μM and 1 mM, respectively.
Titration is performed at 25° C. with a NANO ITC System (TA Instruments, New Castle, Del.) and data analysed using the TA Nano Analyze software. Dissociation constants and their standard deviations are typically derived from two to three independent measurements.

FBXW7 = FBXW7 (Homo sapiens, UniProt Q969H0); assay: Peptides immobilised on membranes screened for the ability to bind FBXW7; type: binding
Sequence of FBXW7 (Q969H0 whole entry): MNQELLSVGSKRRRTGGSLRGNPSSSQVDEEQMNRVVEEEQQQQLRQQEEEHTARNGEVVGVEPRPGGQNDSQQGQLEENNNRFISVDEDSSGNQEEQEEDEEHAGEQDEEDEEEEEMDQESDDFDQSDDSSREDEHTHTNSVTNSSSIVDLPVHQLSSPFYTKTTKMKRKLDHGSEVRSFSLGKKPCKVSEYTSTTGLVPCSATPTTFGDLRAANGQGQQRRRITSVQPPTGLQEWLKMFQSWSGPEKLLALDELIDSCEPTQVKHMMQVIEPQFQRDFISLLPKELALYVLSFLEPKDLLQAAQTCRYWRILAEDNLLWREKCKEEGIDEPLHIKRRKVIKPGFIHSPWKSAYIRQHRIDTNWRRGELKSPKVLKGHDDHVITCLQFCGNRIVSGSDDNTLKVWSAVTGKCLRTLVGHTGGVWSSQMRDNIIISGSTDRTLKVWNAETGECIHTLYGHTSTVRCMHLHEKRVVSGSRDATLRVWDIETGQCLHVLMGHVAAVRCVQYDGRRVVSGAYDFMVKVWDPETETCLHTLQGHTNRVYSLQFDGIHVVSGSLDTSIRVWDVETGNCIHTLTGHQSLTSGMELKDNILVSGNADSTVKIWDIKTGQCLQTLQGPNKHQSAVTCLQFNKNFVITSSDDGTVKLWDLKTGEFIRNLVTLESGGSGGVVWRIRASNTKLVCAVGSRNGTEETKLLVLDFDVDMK
Description: Peptides derived from DISC1 and containing the putative phospho-degron motif were immobilised on membranes and screened for the ability to bind FBXW7. […] (SEQ ID NO: 114).
The 7-mer peptide P-pT-P-P-G-pS-H (SEQ ID NO: 21) was used as the basis for further investigation. L- and D-forms of aspartic acid and glutamic acid (upper and lower case letters respectively) as well as N-methylated versions of each (designated “m”) were incorporated at positions 198 and 202.

[2] = system: FBXW7 substrates Notch-1, c-Myc, c-Jun and cyclinE; assay: Expression levels of other FBXW7 substrates after peptide treatment, Western blot; type: cell-based, human; conditions: FIG. 11, specificity for the FBXW7-DISC1 interaction
Method: Lysates were boiled in Laemmli buffer for 2 minutes prior to SDS-PAGE. Lysates were loaded on to a precast 4-12% bis-tris gel (˜10 μg/well). Gels were resolved at 150V (constant) for 90 mins. Proteins were transferred to nitrocellulose membrane at 30V for 1 hour. Membranes were blocked in 5% Milk in 1×TBS-tween20 for 1 hour at room temperature. Primary antibodies were diluted in 1% milk in 1×TBS-tween20 and incubated overnight at 4° C. Membranes were washed three times with 1×TBS-tween20 and the appropriate secondary antibody (diluted using 1% milk in 1×TBS-tween20) was added for 45 mins at room temperature. Membranes were washed a further three times with 1×TBS-tween20 and once in 1×TBS. Protein bands were visulised using the Licor Odyssey scanner and analysed using Odyssey software (version 1.2). DISC-1 protein levels were analysed by densitometry and normalised against those of the loading control (GAPDH).

[3] = system: DISC1 expression in HEK293 cells; assay: DISC1 expression in HEK293 cells treated with cell-permeable peptides, quantitative Western blotting; type: cell-based, human; conditions: for DISC1 up-regulation, time course: cell-permeable (N-terminal stearate) peptides at 100 μM, 0, 1, 2, 3 and 6 hours, FIG. 9
Method: Peptides modified at the N-terminal amino group with stearate moieties to render them cell permeable (Severn Biotech Ltd) were dissolved in sterile DMSO at a stock concentration of 100 mM.
HEK293 cells were seeded into 6 well plates and cultured until 70-80% confluent. Cell permeable peptides 139 and 142 were added at 100 μM. Cells were incubated at 37° C./5% C02. Cells were taken at 0, 1, 2, 3 and 6 hours post peptide addition. After treatment cells were washed briefly with ice cold PBS and lysed on ice using 3T3 lysis buffer (20 mM Hepes (pH 7.4), 50 mM NaCl, 50 mM NaF, 10% (v/v) glycerol, 1% (w/v) Triton X-100, 10 mM EGTA, 30 mM sodium pyrophosphate) containing protease and phosphatase inhibitors. Protein concentrations were assessed using Bradford assay. Cell lysates were separated by SDS-PAGE and levels of DISC1 expression determined by quantitative Western blotting using the Licor Odyssey imaging system. GAPDH was used as a control to confirm equal loading.
In a similar experiment, HEK293 were seeded into 6 well plates and cultured until 70-80% confluent. Cell-permeable peptides 139 and 142 were added over a concentration range: 10 μM, 30 μM, 50 μM, 100 μM in duplicate. Cells were incubated at 37° C./5% C02 for 3 hours. […] After treatment cells were washed briefly with ice cold PBS and lysed on ice as described above.
as §1

| Molecule | DISC1 levels [1] | Kd (Skp1-FBXW7) [nM] | binding to FBXW7 (FBXW7) | effect on expression levels of the other FBXW7 substrates Notch-1, c-Myc, c-Jun and cyclinE [2] | DISC1 up-regulation, time course [3] | DISC1 up-regulation, dose dependence ([3]; cell-permeable peptides at 10 μM, 30 μM, 50 μM, 100 μM, 3 hours, FIG. 10) |
| --- | --- | --- | --- | --- | --- | --- |
| CC(C)C[C@@H](C=O)NC(=O)[C@H](CC(C)C)NC(=O)[C@H](CC(C)C)NC(=O)OCc1ccccc1 [MG132, N-carbobenzoxyl-Leu-Leu-Leucinal] (Cbz-Leu-Leu-Leu-aldehyde) | up-regulates DISC1 levels | – | – | – | – | – |
| CC(C)[C@H](N)C(=O)N1CCC[C@H]1C(=O)N1CCC[C@H]1C(=O)N[C@H](C(=O)N1CCC[C@H]1C(=O)N1CCC[C@H]1C(=O)NCC(=O)N[C@@H](COP(=O)(O)O)C(=O)N[C@@H](Cc1c[nH]cn1)C(=O)O)[C@@H](C)OP(=O)(O)O [VPPpTPPGpSH] (H-VPP[pT]PPG[pS]H-OH; N-terminus and C-terminus assumed) | – | ~1000 | – | – | – | – |
| G-mD-P-P-G-mE-H (G[NMeD]PPG[NMeE]H) [Peptide 142] | – | – | retain or have improved binding to FBXW7 | do not upregulate other FBXW7 substrates; also recorded: no effect | Up-Regulate DISC1 Expression | – |
| G-mE-P-P-G-mE-H (G[NMeE]PPG[NMeE]H) [Peptide 139] | – | – | retain or have improved binding to FBXW7 | do not upregulate other FBXW7 substrates; also recorded: no effect | Up-Regulate DISC1 Expression | dose-dependent |
